Common to all, as to format: in vivo
In experiment [1] the test system is Alopecurus myosuroides (ALOMY). As to the kind of experiment: Example B pre-emergence herbicidal activity, glasshouse pot test. Particulars: 312 h, rate 250 g/ha, evaluated after 13 days, scale 0-100, read-out: Pre-emergence activity ALOMY (100=total damage to plant; 0=no damage to plant). The protocol:
(§1) Seeds of a variety of test species were sown in standard soil in pots. After cultivation for one day (pre-emergence) or after 8 days cultivation (post-emergence) under controlled conditions in a glasshouse (at 24/16° C., day/night; 14 hours light; 65% humidity), the plants were sprayed with an aqueous spray solution derived from the formulation of the technical active ingredient of formula I in acetone/water (50:50) solution containing 0.5% Tween 20 (polyoxyethelyene sorbitan monolaurate, CAS RN 9005-64-5). The test plants were then grown in a glasshouse under controlled conditions in a glasshouse (at 24/16° C., day/night; 14 hours light; 65% humidity) and watered twice daily. After 13 days for pre and post-emergence, the test was evaluated (100=total damage to plant; 0=no damage to plant). Setaria faberi (SETFA), Lolium perenne (LOLPE), Alopecurus myosuroides (ALOMY), Echinochloa crus-galli (ECHCG), and Avena fatua (AVEFA). Pre-Emergence Activity

The subject of experiment [2] is Avena fatua (AVEFA). The description is as above. Particulars: 312 h, rate 250 g/ha, evaluated after 13 days, scale 0-100, read-out: Pre-emergence activity AVEFA (100=total damage to plant; 0=no damage to plant). On the procedure: as §1
Experiment [3] concerns Echinochloa crus-galli (ECHCG). The description is as above. Particulars: 312 h, rate 250 g/ha, evaluated after 13 days, scale 0-100, read-out: Pre-emergence activity ECHCG (100=total damage to plant; 0=no damage to plant). On the procedure: as §1
Experiment [4] has as its system Lolium perenne (LOLPE). The experiment is described as above. Particulars: 312 h, rate 250 g/ha, evaluated after 13 days, scale 0-100, read-out: Pre-emergence activity LOLPE (100=total damage to plant; 0=no damage to plant). The protocol:
as §1

Experiment [5] has as its system Alopecurus myosuroides (ALOMY). As to the kind of experiment: Example B post-emergence herbicidal activity, glasshouse pot test. To be noted: 312 h, rate 250 g/ha, evaluated after 13 days, scale 0-100, read-out: Post-emergence activity ALOMY (100=total damage to plant; 0=no damage to plant). The protocol:
as §1, with “Post-Emergence” for “Pre-Emergence”

Experiment [6] deals with Avena fatua (AVEFA). The description is as above. To be noted: 312 h, rate 250 g/ha, evaluated after 13 days, scale 0-100, read-out: Post-emergence activity AVEFA (100=total damage to plant; 0=no damage to plant). On the procedure: as §1, with “Post-Emergence” for “Pre-Emergence”
The test system of experiment [7] is Echinochloa crus-galli (ECHCG). The description is as above. To be noted: 312 h, rate 250 g/ha, evaluated after 13 days, scale 0-100, read-out: Post-emergence activity ECHCG (100=total damage to plant; 0=no damage to plant). The protocol:
as §1, with “Post-Emergence” for “Pre-Emergence”

The test system of experiment [8] is Lolium perenne (LOLPE). The description is as above. Particulars: 312 h, rate 250 g/ha, evaluated after 13 days, scale 0-100, read-out: Post-emergence activity LOLPE (100=total damage to plant; 0=no damage to plant). The protocol: as §1, with “Post-Emergence” for “Pre-Emergence”

For 15 molecules, pest or weed control results are on record in patent US8741806B2, “Herbicides” (Syngenta Limited, priority 2009, dated 2014).

In the case of `CCc1ccc(-c2ccc(Cl)c(OC)c2)cc1C1=C(O)CC(C)(C)CC1=O` [Compound T23], the pest or weed control at 250 g/ha in experiment [1] is 40%; with Avena fatua (AVEFA) [2], 20%; in experiment [3] it was 90%; in the experiment with Lolium perenne (LOLPE) [4], 70%; in experiment [5] it was 90%; in the experiment with Avena fatua (AVEFA) [6], 60%. The pest or weed control at 250 g/ha (in experiment [7]; with Lolium perenne (LOLPE) [8]) was 100% throughout.
Take `CCc1ccc(-c2cc(Cl)c(Cl)cc2Cl)cc1C1=C(O)CCCC1=O` [Compound T46]: the pest or weed control at 250 g/ha in experiment [1] was determined as 0%; in the experiment with Avena fatua (AVEFA) [2], 20%; in experiment [3] it was 90%; with Lolium perenne (LOLPE) [4], 70%; in experiment [5], 0%; with Avena fatua (AVEFA) [6] it was 20%. The pest or weed control at 250 g/ha in experiment [7] turned out to be 100%; with Lolium perenne (LOLPE) [8] it was 70%.
In the case of `CCc1ccc(-c2ccc(Cl)c(Cl)c2Cl)cc1C1=C(O)CCCC1=O` [Compound T54], the pest or weed control at 250 g/ha in experiment [1] came to 0%; in the experiment on Avena fatua (AVEFA) [2], 0%; in experiment [3], 70%; in the experiment with Lolium perenne (LOLPE) [4], 20%; in experiment [5], 20%; with Avena fatua (AVEFA) [6], 0%. Further, the results for the pest or weed control at 250 g/ha (in experiment [7]; in the experiment with Lolium perenne (LOLPE) [8]) were 80% and 60%, respectively.
On to `CCc1ccc(-c2ccc(Cl)nc2)cc1C1=C(O)CC(C)(C)CC1=O` [Compound T27], for which the pest or weed control at 250 g/ha amounted to 0% in experiment [1]; 0% in the experiment with Avena fatua (AVEFA) [2]; 0% in experiment [3]; 0% in the experiment on Lolium perenne (LOLPE) [4]; 90% in experiment [5]; 70% in the experiment on Avena fatua (AVEFA) [6]. For the same molecule, the pest or weed control at 250 g/ha stood at 100% in experiment [7] and 80% with Lolium perenne (LOLPE) [8].
For the molecule `CCc1ccc(-c2ccc(Cl)c(F)c2F)cc1C1=C(O)CCCC1=O` [Compound T52], the pest or weed control at 250 g/ha came out at 40% in experiment [1]; 30% in the experiment with Avena fatua (AVEFA) [2]; 100% in experiment [3]; 90% with Lolium perenne (LOLPE) [4]; 70% in experiment [5]; 80% with Avena fatua (AVEFA) [6]. The pest or weed control at 250 g/ha (in experiment [7]; in the experiment on Lolium perenne (LOLPE) [8]) was 100% throughout.
In the case of `CCc1ccc(-c2ccc(Cl)c(C(F)(F)F)c2)cc1C1=C(O)C(C)(C)CC(C)(C)C1=O` [Compound T65], the pest or weed control at 250 g/ha in experiment [1] stood at 10%; in the experiment with Avena fatua (AVEFA) [2] it was 20%; in experiment [3], 90%; in the experiment on Lolium perenne (LOLPE) [4] it was 50%; in experiment [5], 20%; in the experiment on Avena fatua (AVEFA) [6], 30%. Besides, the pest or weed control at 250 g/ha was determined as 80% in experiment [7] and 50% in the experiment with Lolium perenne (LOLPE) [8].
Consider `CCc1ccc(-c2ccc(Cl)c(C(F)(F)F)c2)cc1C1=C(O)CC(C)(C)CC1=O` [Compound T25], for which the pest or weed control at 250 g/ha in experiment [1] turned out to be 30%; in the experiment with Avena fatua (AVEFA) [2] it was 20%; in experiment [3], 80%; in the experiment with Lolium perenne (LOLPE) [4] it was 70%; in experiment [5], 80%; in the experiment on Avena fatua (AVEFA) [6], 80%. In addition, the pest or weed control at 250 g/ha (in experiment [7]; in the experiment with Lolium perenne (LOLPE) [8]) was 100% throughout.
As for `CCc1ccc(-c2ccc(Cl)cc2F)cc1C1=C(O)CCCC1=O` [Compound T45], the pest or weed control at 250 g/ha was determined as 20% in experiment [1]; 20% in the experiment on Avena fatua (AVEFA) [2]; 100% in experiment [3]; 100% in the experiment on Lolium perenne (LOLPE) [4]; 40% in experiment [5]; 90% with Avena fatua (AVEFA) [6]. Also, the pest or weed control at 250 g/ha (in experiment [7]; in the experiment on Lolium perenne (LOLPE) [8]) was 100% each time.
In the case of `CCc1ccc(-c2ccc(Cl)c(Cl)c2F)cc1C1=C(O)C(C)(C)CCC1=O` [Compound T17], the pest or weed control at 250 g/ha in experiment [1] came out at 0%; in the experiment with Avena fatua (AVEFA) [2], 0%; in experiment [3], 80%; with Lolium perenne (LOLPE) [4], 0%; in experiment [5], 0%; with Avena fatua (AVEFA) [6] it was 0%. Besides, the pest or weed control at 250 g/ha in experiment [7] turned out to be 90%; in the experiment on Lolium perenne (LOLPE) [8] it was 40%.
On to `CCc1ccc(-c2ccc(Cl)c(F)c2Cl)cc1C1C(=O)C(C)(C)CC(C)(C)C1=O` [Compound T63], for which the pest or weed control at 250 g/ha in experiment [1] was 20%; in the experiment on Avena fatua (AVEFA) [2] it was 50%; in experiment [3], 90%; with Lolium perenne (LOLPE) [4], 90%; in experiment [5] it was 20%; in the experiment with Avena fatua (AVEFA) [6], 40%. Also, the pest or weed control at 250 g/ha (in experiment [7]; in the experiment on Lolium perenne (LOLPE) [8]) was 80% each time.
Turning to `CCc1ccc(-c2ccc(Cl)cc2C)cc1C1=C(O)CCCC1=O` [Compound T48], the pest or weed control at 250 g/ha in experiment [1] was determined as 0%; in the experiment with Avena fatua (AVEFA) [2], 20%; in experiment [3] it was 90%; with Lolium perenne (LOLPE) [4], 80%; in experiment [5] it was 20%; in the experiment with Avena fatua (AVEFA) [6], 10%. Moreover, the pest or weed control at 250 g/ha in experiment [7] came out at 100%; in the experiment with Lolium perenne (LOLPE) [8], 50%.
Turning to `CCc1ccc(-c2ccc(Cl)c(C(F)(F)F)c2F)cc1C1=C(O)CCCC1=O` [Compound T53], the pest or weed control at 250 g/ha worked out at 20% in experiment [1]; 0% in the experiment on Avena fatua (AVEFA) [2]; 40% in experiment [3]; 40% with Lolium perenne (LOLPE) [4]; 40% in experiment [5]; 80% in the experiment on Avena fatua (AVEFA) [6]. In addition, the pest or weed control at 250 g/ha (in experiment [7]; in the experiment with Lolium perenne (LOLPE) [8]) was 100% each time.
`CCc1ccc(-c2ccc(Cl)c(Cl)c2)cc1C1=C(O)C(C)(C)CCC1=O` [Compound T5]: the pest or weed control at 250 g/ha came to 0% in experiment [1]; 0% in the experiment with Avena fatua (AVEFA) [2]; 0% in experiment [3]; 0% in the experiment with Lolium perenne (LOLPE) [4]; 70% in experiment [5]; 90% with Avena fatua (AVEFA) [6]. Moreover, the pest or weed control at 250 g/ha in experiment [7] is 100%; in the experiment with Lolium perenne (LOLPE) [8], 80%.
Consider `CCc1ccc(-c2ccc(Cl)c(C(F)(F)F)c2)cc1C1=C(O)CCCC1=O` [Compound T41], for which the pest or weed control at 250 g/ha in experiment [1] was 20%; in the experiment with Avena fatua (AVEFA) [2], 30%; in experiment [3], 100%; in the experiment with Lolium perenne (LOLPE) [4], 100%; in experiment [5], 60%; in the experiment on Avena fatua (AVEFA) [6], 50%. Also, the pest or weed control at 250 g/ha in experiment [7] was 90%; with Lolium perenne (LOLPE) [8], 100%.
Turning to `CCc1ccc(-c2ccc(Cl)c(F)c2F)cc1C1=C(O)CC(C)(C)CC1=O` [Compound T30], the pest or weed control at 250 g/ha in experiment [1] came out at 0%; in the experiment on Avena fatua (AVEFA) [2] it was 20%; in experiment [3] it was 70%; in the experiment with Lolium perenne (LOLPE) [4] it was 70%; in experiment [5] it was 80%; with Avena fatua (AVEFA) [6], 60%. Besides, the pest or weed control at 250 g/ha (in experiment [7]; in the experiment with Lolium perenne (LOLPE) [8]) was 100% in each case.
